Article PMC7463632, “Conformational Restriction of Histamine with a Rigid Bicyclo[3.1.0]hexane Scaffold Provided Selective H3 Receptor Ligands” (Molecules, 2020)
Where “and” joins values, the source holds several entries; their conditions need not be identical. Equal values may be shown once. Read-outs that look alike come from different tables or passages of the source. Values belong to the compound of their own block, whether it stands above or below them.

Columns and labels:
[1] = molecular target: T1, human histamine H4 receptor (Homo sapiens, UniProt Q9H3N8); experiment: Radioligand binding assay with [3H]histamine on CHO cell membranes expressing recombinant human H4 receptor; details: human H4R, mean ± SEM (n = 3–5)
T1 construct: purchased Euroscreen (Brussels, Belgium); host or cells: CHO cells (membrane preparations)
Method: (§1) The binding affinities of 6, 7, ent-6, and ent-7 for the human H3R subtype with [^3H]N^α-methylhistamine and the human H4R subtype with [^3H]histamine were evaluated using cell membranes expressing human H3R or H4R according to the previously reported method, and the results are summarized in Table 1.
(§2) The protocol of the biological assay was according to the previous report. The membrane preparations of Chinese hamster ovary (CHO) cells, which expressed recombinant human histamine H3 or H4 receptors, were purchased from Euroscreen (Brussels, Belgium). The binding assay of the H3 and H4 receptors was performed using [^3H]N^α-methylhistamine (Perkin-Elmer, Boston, MA) and [^3H]histamine (Perkin-Elmer), respectively. Briefly, the membrane preparations (7.5–15 µg protein) were incubated with different concentrations of [^3H]N^α-methylhistamine (0.1–3 nM) and of [^3H]histamine(1–30 nM) for 30 min at 25 °C in 50 mM Tris/5 mM MgCl2 buffer (pH 7.4). The reaction was terminated by rapid filtration (Cell Harvester, Brandel Co., Gaithersburg, MD) through Whatman GF/B glass fiber filters presoaked for 2 h in 0.5% polyethyleneimine, and the filters were rinsed three times with an ice-cold buffer (2 mL). Membrane-bound radioactivity was extracted from filters overnight in scintillation fluid (toluene, 2 L; Triton X-100, 1 L; 2,5-diphenyloxazole, 15 g; 1,4-bis[2-(5-phenyloxazolyl)]benzene, 0.3 g) and determined in a liquid scintillation counter. […] The apparent dissociation constants (Kd) for each radioligand was determined by nonlinear regression analysis of the curve generated by plotting specific binding concentration versus concentration of the radioligand with GraphPad Prism (GraphPad Software, San Diego, CA) using a one-site binding curve equation. […] The inhibition constant, Ki, was calculated from the equation, Ki = IC50/(1 + L/Kd), where L equals the concentration of each radioligand. The data were presented as mean ± SE (n = 3–5).

[2] = molecular target: T2, human histamine H3 receptor (Homo sapiens, UniProt Q9Y5N1); experiment: Radioligand binding assay with [3H]Nα-methylhistamine on CHO cell membranes expressing recombinant human H3 receptor; details: for Selectivity Ratio (H4/H3): ratio of Ki H4 / Ki H3, human receptors; for Ki: human H3R, CHO cell membranes, [3H]Nα-methylhistamine, mean ± SEM (n = 3–5)
T2 construct: purchased Euroscreen (Brussels, Belgium); host or cells: CHO cells (membrane preparations)
Method: as §1, §2

[3] = molecular target: T2, human histamine H3 receptor; details: cited from earlier work; for Ki: human H3R, [3H]Nα-methylhistamine, mean ± SEM; for Selectivity Ratio (H4/H3): ratio of Ki H4 / Ki H3, human receptors
[4] = molecular target: T1, human histamine H4 receptor; set-up: method as in PMID 16942032; details: human H4R, [3H]histamine; mean ± SEM; cited from earlier work

T2 sequence (Q9Y5N1 whole entry): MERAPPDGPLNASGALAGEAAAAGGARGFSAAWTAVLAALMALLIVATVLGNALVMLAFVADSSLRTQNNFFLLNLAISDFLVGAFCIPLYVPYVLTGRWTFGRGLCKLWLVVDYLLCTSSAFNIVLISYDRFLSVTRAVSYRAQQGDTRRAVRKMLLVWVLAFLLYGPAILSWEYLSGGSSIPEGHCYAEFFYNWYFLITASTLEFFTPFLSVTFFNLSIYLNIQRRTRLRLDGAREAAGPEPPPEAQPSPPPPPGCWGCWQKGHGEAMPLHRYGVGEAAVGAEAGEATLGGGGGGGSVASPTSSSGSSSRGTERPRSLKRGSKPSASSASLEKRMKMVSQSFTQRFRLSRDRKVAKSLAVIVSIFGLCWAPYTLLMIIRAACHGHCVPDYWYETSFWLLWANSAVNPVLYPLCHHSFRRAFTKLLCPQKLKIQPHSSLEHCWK

SMILES: Clc1ccc(CNCCC2CC2c2c[nH]cn2)cc1 (stereo not shown) [Compound 3]
Ki [3]: 3.6 ± 0.4 nM | Selectivity Ratio (H4/H3) [3]: 10.3 and 10 | Ki [4]: 37.2 ± 2.7 nM

SMILES: CC[C@H](CNCc1ccc(Cl)cc1)[C@H]1C[C@@H]1c1c[nH]cn1 [Compound 5]
Ki [1]: 76.5 ± 14 nM | fold lower H3R binding affinity than that of 3 ([2]; H3R Ki of 5 compared with 3): more than 15 fold | Selectivity Ratio (H4/H3) [2]: 1.2

SMILES: Clc1ccc(CNCC[C@@H]2C[C@@H]2c2cnc[nH]2)cc1 (single isomer, unassigned) [ent-3]
Ki [3]: 8.4 ± 1.5 nM | Selectivity Ratio (H4/H3) [3]: 0.9 | Ki [4]: 7.6 ± 0.4 nM

SMILES: Clc1ccc(CNC[C@H]2CC[C@@]3(c4c[nH]cn4)C[C@@H]23)cc1 (single isomer, unassigned) [ent-7]
Ki [1]: 69.2 ± 21 nM | Ki [2]: 14.8 ± 3.8 nM | Selectivity Ratio (H4/H3) [2]: 4.7

Continued, values first:

Ki [1]: 9 ± 1 nM | Selectivity Ratio (H4/H3) [2]: 1.3
SMILES: CC[C@@H](CNCc1ccc(Cl)cc1)[C@H]1C[C@@H]1c1c[nH]cn1 [Compound 4]

Ki [1]: 501 ± 201 nM | Ki [2]: 31.6 ± 8.2 nM | Selectivity Ratio (H4/H3) [2]: 16
SMILES: Cl.Cl.Clc1ccc(CNC[C@H]2CC[C@]3(c4c[nH]cn4)C[C@H]23)cc1 [Compound 6, (1S,4S,5R)-4-[N-(4-Chlorobenzyl)aminomethyl]-1-(1H-imidazol-4-yl)bicyclo[3.1.0]hexane dihydrochloride]

Ki [1]: 602 ± 343 nM | Ki [2]: 5.6 ± 1.6 nM
SMILES: Clc1ccc(CNC[C@@H]2CC[C@]3(c4c[nH]cn4)C[C@H]23)cc1 [Compound 7]

Ki [1]: 416 ± 155 nM | Ki [2]: 21.9 ± 6 nM | Selectivity Ratio (H4/H3) [2]: 19
SMILES: Clc1ccc(CNC[C@@H]2CC[C@@]3(c4c[nH]cn4)C[C@@H]23)cc1 (single isomer, unassigned) [ent-6]
